Test results reported in patent publication US8247444B2, “Anti-tumor effect of dimeric phthalide compound” (priority 2007, dated 2012).
In brackets after ≈: the same amount, converted by molar mass.

Assays:
[1] = system: KB; experiment: Vascular endothelial cell inhibition assay (CCK-8), KB; format: cell-based; conditions: Homo sapiens, 72 h, CCK-8, Table 2
Description: (§1) 2×10^3 cells were seeded into a 96-well plate and cultured for 24 h. S1-S6 of different concentrations (0, 0.01, 0.1, 0.5, 1, 2.5, 5, 10, 20, 40, 80, 160 μg/ml, respectively) were added and incubated for 72 h, n=6 for each concentration. The inhibition of cell proliferation was detected by CCK-8 assay, the results were calculated as IC50, as describe in Example 3.

[2] = system: Bel-7402; experiment: Vascular endothelial cell inhibition assay (CCK-8), Bel-7402; format: cell-based; conditions: Homo sapiens, 72 h, CCK-8, Table 2
Description: as §1

[3] = system: SMMC-7721/Adr; experiment: Growth inhibition of sensitive and drug-resistant cell lines (IC50), SMMC-7721/Adr; format: cell-based; conditions: Homo sapiens; SMMC-7721/Adr drug-resistant cells
Description: (§2) HL-60/ADR, MCF-7/ADR, K562/ADR, Bel-7402/5-FU, KBV200, SMMC-7721/Adr were respectively chemotherapeutics Adriamycin (ADR), 5-Fluorouracil (5-FU) or vincristine (VCR) drug-resistant sub-stains of HL-60, MCF-7, K562, Bel-7402, KB, SMMC-7721 cells (all from Chinese Academy of Medical Sciences). NB4-R2 was all trans-retinoic acid (ATRA) drug-resistant sub-stain (from Pathophysiology Research Department of Shanghai JiaoTong University). The main drug-resistance mechanism of K562/ADR was high expression of P-glycoprotein (P-gp), along with increased expression of Bcl-2. In addition to high expression of P-gp, the drug-resistance mechanism of MCF-7/ADR also related to the high expression of Breast Cancer Resistant Protein (BCRP). The main drug-resistance mechanism of HL-60/ADR was high expression of Multidrug Resistance Protein 1 (MRP1), along with high expression of Bcl-2, Bcl-xL. […] The main drug-resistance mechanism of KBV200 was high expression of P-gp and its increased activity. The drug-resistance mechanism of NB4-R2 on ATRA was mutation in the RAR gene locus.
(§3) The human lung cancer cell H1299 and H446, glioma cell U251 and U87MG, and human hepatic cellular cancer Bel-7402 cell in logarithmic growth phase were digested with pancreatic enzyme, and then suspended into DMEM or RPMI1640 containing 10% fetal bovine serum. The leukemic cells Kasumi-1 need no digestion, and were suspended into RPMI1640 containing 10% fetal bovine serum directly after centrifugalization. The cell density was adjusted to 1×10^4 cells/ml through cell counting, and the cell suspensions were seeded into a 96-well plate respectively, 100 μl/well, totally 6 groups of cells. The adherent cells were cultured overnight, the suspended cells were added different concentration gradients of dimeric phthalide compounds (S1-S6) directly, n=6 for each concentration of a single agent. The final volume was 200 ul, and the balance was supplemented with the culture medium. The plate was then incubated for 68 hours in 37° C., saturated humidity, 5% CO2 cell incubator. The medium was aspirated and 72 μl/well fresh culture medium was added. 8 μl […] (CCK-8) was added into each well and cultured for 2 hours. The absorbance was measured at 450 nm. The results were calculated as the 50% inhibiting drug concentration, i.e. IC50, using Sigmoidal simulation function by software Origin 7.0.
(§4) The cancer cells (various cell lines as shown in table 1 or FIG. 3) were seeded 1×10^3 cells per well into a 96-well plate. The suspended cells were added different concentration of dimeric phthalide compounds (S1-S6) directly, and the adherent cells were cultured overnight and added different concentration of dimeric phthalide compounds (S1-S6). The different concentration of dimeric phthalide compounds were divided into 10 groups: 0, 0.1, 0.5, 1, 5, 10, 20, 40, 80, 160 μg/ml, n=6 for each concentration.
(§5) According to the method described in Example 2, […] was detected and IC50 was calculated. The experiment was repeated for 3 times.
(§6) The growth inhibition effects of dimers of S1-S6 on its sensitive cell lines as well as the drug-resistant sub-strains (IC50 (μg/ml)) were shown in table 1 and FIG. 3.

[4] = system: K562/Adr; experiment: Growth inhibition of sensitive and drug-resistant cell lines (IC50), K562/Adr; format: cell-based; conditions: Homo sapiens; K562/Adr drug-resistant cells
Description: as §2, §3, §4, §5, §6

[5] = system: HUVEC; experiment: Vascular endothelial cell inhibition assay (CCK-8), HUVEC; format: cell-based; conditions: Homo sapiens, 72 h
Description: as §1

[6] = system: MCF-7; experiment: Growth inhibition of sensitive and drug-resistant cell lines (IC50), MCF-7; format: cell-based; conditions: Homo sapiens, MCF7; MCF-7 cells
Description: (§7) In the following Examples, the cell lines used were H1299, H446 (human lung cancer cell line), KB (human oral cavity carcinoma cell line), NB4, HL-60 (human leukemic cell line), U251 ? U87MG (human glioblastoma cell line), MCF-7 (human breast carcinoma cell line), Bel-7402 and SMMC7721 (human hepatic cellular cancer cell line), SW620 (human colon carcinoma cell line), HDF (human dermis fibroblast), HUVEC (human umbilical vein endothelial cell line) and Kasumi-1 (human acute myeloid leukaemia cell line), all from American Type Culture Collection (ATCC).
as §3, §4, §5, §6

[7] = system: K562; experiment: Growth inhibition of sensitive and drug-resistant cell lines (IC50), K562; format: cell-based; conditions: Homo sapiens; K562 cells
Description: as §3, §4, §5, §6

[8] = system: HDF; experiment: Vascular endothelial cell inhibition assay (CCK-8), HDF; format: cell-based; conditions: Homo sapiens, 72 h
Description: as §1

[9] = system: KBv200; experiment: Growth inhibition of sensitive and drug-resistant cell lines (IC50), KBv200; format: cell-based; conditions: Homo sapiens; KBv200 drug-resistant cells
Description: as §2, §3, §4, §5, §6

[10] = system: Bel-7402; experiment: Growth inhibition of sensitive and drug-resistant cell lines (IC50), Bel-7402; format: cell-based; conditions: Homo sapiens; Bel-7402 cells, Table 1
Description: as §7, §3, §4, §5, §6

[11] = system: SMMC-7721; experiment: Growth inhibition of sensitive and drug-resistant cell lines (IC50), SMMC-7721; format: cell-based; conditions: Homo sapiens; SMMC-7721 cells
Description: as §7, §3, §4, §5, §6

[12] = system: Bel-7402/5-Fu; experiment: Growth inhibition of sensitive and drug-resistant cell lines (IC50), Bel-7402/5-Fu; format: cell-based; conditions: Homo sapiens, Bel7402/5-FU; Bel-7402/5-Fu drug-resistant cells
Description: as §2, §3, §4, §5, §6

[13] = system: MCF-7/Adr; experiment: Growth inhibition of sensitive and drug-resistant cell lines (IC50), MCF-7/Adr; format: cell-based; conditions: Homo sapiens, NCI/ADR-RES; MCF-7/Adr drug-resistant cells
Description: as §2, §3, §4, §5, §6

[14] = system: KB; experiment: Growth inhibition of sensitive and drug-resistant cell lines (IC50), KB; format: cell-based; conditions: Homo sapiens; KB cells, Table 1
Description: as §7, §3, §4, §5, §6

[15] = system: secretion of VEGF in H1299 cell; experiment: VEGF in supernatant of tumor cell H1299 culture (VEGF-ELISA); format: cell-based, human; conditions: H1299, compound 5 μg/ml, 24 h; for inhibition at 5 µg/mL: Homo sapiens, NCI-H1299, read-out: Inhibition rate of VEGF secretion
Description: Assay of vascular endothelial cell growth factor (VEGF) in supernatant of tumor cell H1299 culture. The cell was seeded into a 24-well plate (n=3 for each sample). H1299 cell was treated with S1-S6 respectively and cultured for 24 h. The culture supernatants from each group were collected and operated according to the instruction of VEGF-ELISA kit (JIN MEI Corporation). The samples were added, incubated, washed and detected at 450 nm for OD values of each sample. The standard curve was obtained by using different dose of VEGF standards and the secretory volume of VEGF in the supernatant was calculated.

Row | Structure (SMILES) | IC50 [1] [µg/mL] | IC50 [2] [µg/mL] | IC50 [3] [µg/mL] | IC50 [4] [µg/mL] | IC50 [5] [µg/mL] | IC50 [6] [µg/mL] | IC50 [7] [µg/mL] | IC50 [8] [µg/mL] | IC50 [9] [µg/mL] | IC50 [10] [µg/mL] | IC50 [11] [µg/mL] | IC50 [12] [µg/mL] | IC50 [13] [µg/mL] | IC50 [14] [µg/mL] | Supernatant VEGF [15] [ng/ml/10^6 cells] | inhibition at 5 µg/mL [15] [%]
1 | CCC/C=C1\OC(=O)C2=C1CCC1C2C2(OC(=O)c3ccccc32)[C@@H]1CCC (stereo partly drawn) [S2] | 37.8 (≈ 99.9 µM) | 25.6 (≈ 67.7 µM) | 38.3 ± 1.87 (≈ 101 µM) | 20.4 ± 1.53 (≈ 54 µM) | 4.76 (≈ 12.6 µM) | 25.6 ± 2.01 (≈ 67.7 µM) | 18.4 ± 1.02 (≈ 48.7 µM) | 83.2 (≈ 220 µM) | 16.4 ± 1.98 (≈ 43.2 µM) | 27.9 ± 2.54 (≈ 73.6 µM) | 37.9 ± 2 (≈ 100 µM) | 29.7 ± 1.99 (≈ 78.4 µM) | 29.4 ± 2.8 (≈ 77.8 µM) | 15.8 ± 1.25 (≈ 41.7 µM) | 245.71 ± 34.27 | 34.2
2 | CCC/C=C1\OC(=O)C2=C1CCC1[C@H]2C23C=CCC[C@@H]2C1(C(=O)CCC)OC3=O (single isomer, unassigned) [S3] | 18.9 (≈ 47.7 µM) | 44.3 (≈ 112 µM) | 26.7 ± 2.6 (≈ 67.3 µM) | 19.2 ± 1.71 (≈ 48.3 µM) | 5.99 (≈ 15.1 µM) | 32.1 ± 3.21 (≈ 81 µM) | 17.4 ± 2.06 (≈ 44 µM) | 98.7 (≈ 249 µM) | 20.4 ± 2.6 (≈ 51.6 µM) | 28.1 ± 3.96 (≈ 70.9 µM) | 25.4 ± 2 (≈ 64.1 µM) | 29.3 ± 2.3 (≈ 74 µM) | 34 ± 3.06 (≈ 85.7 µM) | 19 ± 1.91 (≈ 48 µM) | 268.7 ± 36.13 | 28
3 | CCC/C=C1\OC(=O)C2=CC3CC[C@]21C1C2=C(CC[C@@H]31)C(CCCC)OC2=O (stereo partly drawn) [S5] | 36 (≈ 94.1 µM) | 29.7 (≈ 77.6 µM) | 35.2 ± 2.33 (≈ 92.1 µM) | 18.3 ± 0.762 (≈ 47.9 µM) | 4.04 (≈ 10.6 µM) | 28.5 ± 1.91 (≈ 74.6 µM) | 18.4 ± 0.87 (≈ 48.2 µM) | 75.8 (≈ 198 µM) | 19.8 ± 1.05 (≈ 51.8 µM) | 30.2 ± 2.17 (≈ 79 µM) | 36 ± 3.92 (≈ 94.2 µM) | 28.1 ± 4.02 (≈ 73.4 µM) | 29.2 ± 2.14 (≈ 76.4 µM) | 16.4 ± 2.05 (≈ 42.9 µM) | 236.32 ± 24.02 | 36.7
